Measured values taken from US20200010482A1, “INHIBITORS OF BETA SECRETASE” (Janssen Pharmaceutica NV, priority 2017, published 2020).

Experiments:
[1] = system: Abeta total produced and secreted by SKNBE2 cells expressing hAPP695; test: Cellular αLisa assay in SKNBE2 cells, Abeta total; type: cell-based, human; settings: SKNBE2 cells expressing hAPP695, 18 hours incubation
Procedure: In two αLisa assays the levels of Abeta total and Abeta 1-42 produced and secreted into the medium of human neuroblastoma SKNBE2 cells are quantified. The assay is based on the human neuroblastoma SKNBE2 expressing the wild type Amyloid Precursor Protein (hAPP695). The compounds are diluted and added to these cells, incubated for 18 hours and then measurements of Abeta 1-42 and Abeta total are taken. Abeta total and Abeta 1-42 are measured by sandwich αLisa. αLisa is a sandwich assay using biotinylated antibody AbN/25 attached to streptavidin coated beads and antibody Ab4G8 or cAb42/26 conjugated acceptor beads for the detection of Abeta total and Abeta 1-42 respectively. In the presence of Abeta total or Abeta 1-42, the beads come into close proximity. The excitation of the donor beads provokes the release of singlet oxygen molecules that trigger a cascade of energy transfer in the acceptor beads, resulting in light emission. Light emission is measured after 1 hour incubation (excitation at […] and emission at 615 nm).
A best-fit curve is fitted by a minimum sum of squares method to the plot of % Controlmin versus compound concentration. From this an IC50 value (inhibitory concentration causing 50% inhibition of activity) can be obtained. • LC=Median of the low control values=Low control: cells preincubated without compound, without biotinylated Ab in the αLisa • HC=Median of the High control values=High Control: cells preincubated without compound
% Effect=100−[(sample−LC)/(HC−LC)*100]
% Control=(sample/HC)*100
% Controlmin=(sample−LC)/(HC−LC)*100

[2] = biological target: β-secretase I (BACE1) (Homo sapiens, UniProt P56817); test: Biochemical assay, automated (CyclOps), BACE1; settings: automated CyclOps bioassay; for IC50: read-out: AUTOMATED ASSAY BACE1 pIC50 (converted)
Procedure: (§1) Unless otherwise indicated all biochemicals were purchased from Sigma-Aldrich Chemical Company, Poole, Dorset, U.K. and non-aqueous solvents, of analytical or higher grade, were purchased from ThermoFisher Scientific, Loughborough, U.K. MilliQ water (Elix 5 & MilliQ Gradient; Merck Millipore) was used as the base aqueous solvent to make up the biological buffers. Base assay buffer was prepared by adding a 50 mM solution of citric acid (1.00244; Merck Biosciences) to stirring solution of 50 mM trisodium citrate (1.06448; Merck Biosciences) until a final pH of 5.0 was achieved. […] All assays were routinely carried out in 384-well assay plates (Costar 4514; Corning Life Sciences) and incubated at 37±1° C. for 60 min. prior to reading the endpoint fluorescence intensity. The (7-methoxyl coumarin-4-yl)acetic acid based substrate β-secretase substrate VI (M2465; Bachem) was prepared as a 1 mM stock in 100% DMSO (D/4121/PB08; ThermoFisher). Assay buffer was prepared by adding DMSO to base buffer to a final concentration of 1% (vol./vol.). β-secretase I (18.64 μM; “BACE1”) and β-secretase II (4.65 μM; “BACE2”) were obtained from Janssen Pharmaceutica, Beerse, Belgium and were stored as frozen aliquots (˜20 μl) and thawed as required.
(§2) Typically 12.5 μl of assay buffer was dispensed to rows B to P of the assay plate. To row A was added 18.75 μl of test compound diluted appropriately in assay buffer. A 6.25 μl aliquot of sample was transferred from row A to row B and the sample mixed three times by pipette. The process was repeated down the plate and 6.25 μl of solution discarded at row N post-mix. Rows O and P were designated as the positive and negative controls. To row P was added 6.25 μl base buffer. To rows A to O was added 6.25 μl enzyme (freshly prepared 40 nM BACE1 or 40 nM BACE2) diluted in base buffer. To initiate the assay 6.25 μl of freshly prepared 80 μM substrate, made up by diluting the 1 mM in 100% DMSO solution into HPLC grade water (Optima W6-212; ThermoFisher), was added to all the wells. The assay plate was covered and incubated at 37±1° C. for 60 min. The fluorescence intensity of the wells was read at 360/405 nm (excitation/emission) utilising a nine reads per well protocol (50 ms integration; density of 3, 0.25 mm spacing; SpectraMAX Paradigm plate reader; TUNE cartridge; SoftMax Pro v 6.3 software; Molecular Devices UK Ltd., Wokingham, Berkshire, UK) and outputting the median value of the nine reads as a text file. Data analysis was carried out using Prism software v 6.3 (GraphPad Inc., San Diego, Calif., USA) using the non-linear regression analysis models supplied by the vendor. For IC50 determinations the four parameter logistic variable slope model was used to fit the raw fluorescence intensity data with the ‘bottom’ fixed to the negative control.
(§3) The CyclOps bioassay module consisted of a fraction collection station, a reagent station, liquid handling robotics, plate store and an integrated plate reader (SpectraMAX Paradigm, TUNE cartridge, SoftMax Pro v 6.3; Molecular Devices). The fraction collection station composed of a 384 well collection plate (P-384-240SQ-C; Axygen, Union City, Calif., USA) mounted on a H-portal carriage (Festo AG & Co. KG, Esslingen, Germany), a syringe drive and a two-way six port injection valve fitted with a 200 μl loop (VICI AG International, Schenkon Switzerland). The output of the injection valve was addressable to all the positions of a 384 well collection plate. The reagent station consisted of hydraulically cooled (10-12° C.) aluminium segments; each manufactured to house a SBS microtiter plate footprint. Independent addressable reagent stations were housed within these sections. Where required, custom aluminium housings were used to accommodate standard laboratory plastic ware (e.g. Eppendorf tubes, Falcon tubes, etc.). As and when required the reagent reservoirs were covered and the lids contained holes through which the Teflon-coated probe could access solutions. […]

[3] = biological target: T1, β-secretase II (BACE2) (Homo sapiens, UniProt Q9Y5Z0); test: Biochemical assay, automated (CyclOps), BACE2; settings: automated CyclOps bioassay; for IC50: read-out: AUTOMATED ASSAY BACE2 pIC50 (converted)
T1 sequence (Q9Y5Z0 63-518): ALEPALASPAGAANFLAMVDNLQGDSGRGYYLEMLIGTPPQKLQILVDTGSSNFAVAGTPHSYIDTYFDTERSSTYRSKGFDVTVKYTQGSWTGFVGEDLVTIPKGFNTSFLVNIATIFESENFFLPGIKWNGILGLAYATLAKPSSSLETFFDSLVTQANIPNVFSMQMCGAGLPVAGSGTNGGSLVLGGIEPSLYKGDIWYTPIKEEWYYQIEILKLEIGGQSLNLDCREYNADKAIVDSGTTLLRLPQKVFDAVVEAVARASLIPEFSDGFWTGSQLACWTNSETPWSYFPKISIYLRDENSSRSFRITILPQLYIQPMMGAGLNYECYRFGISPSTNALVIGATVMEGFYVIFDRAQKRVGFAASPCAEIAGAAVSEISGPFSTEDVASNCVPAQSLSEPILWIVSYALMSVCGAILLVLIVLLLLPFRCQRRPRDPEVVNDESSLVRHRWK
Procedure: as §1, §2, §3

Chain of β-secretase I (BACE1) (P56817 46-501): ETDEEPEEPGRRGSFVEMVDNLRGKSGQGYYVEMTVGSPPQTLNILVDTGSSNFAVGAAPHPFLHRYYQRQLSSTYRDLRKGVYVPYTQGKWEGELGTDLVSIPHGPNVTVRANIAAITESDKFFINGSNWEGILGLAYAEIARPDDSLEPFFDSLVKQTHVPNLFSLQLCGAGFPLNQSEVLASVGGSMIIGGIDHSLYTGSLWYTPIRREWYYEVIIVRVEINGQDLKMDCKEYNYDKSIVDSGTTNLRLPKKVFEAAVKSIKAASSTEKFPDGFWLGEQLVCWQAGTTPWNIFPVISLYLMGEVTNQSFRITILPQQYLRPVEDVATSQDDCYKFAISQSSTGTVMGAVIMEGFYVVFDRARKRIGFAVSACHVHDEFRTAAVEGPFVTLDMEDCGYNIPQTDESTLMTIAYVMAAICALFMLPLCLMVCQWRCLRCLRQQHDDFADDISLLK

IC50 [2] [nM]	IC50 [3] [nM]	AUTOMATED ASSAY BACE1 pIC50 [2]	AUTOMATED ASSAY BACE2 pIC50 [3]	other results	SMILES
				IC50 ([1]; Homo sapiens, SKNBE2, 18 h, read-out: CELLULAR αLISA ASSAY IN SKNBE2 CELLS ABETA TOTAL pIC50 (converted)): 49 nM	COc1ncc(C#N)c2c1C[C@]1(c3ccccc3F)N=C(N)SC[C@@H]1C2 (racemic) [Compound 22]
4.68	75.9				COc1cc(C)c(-c2cnc(OC)c3c2C[C@H]2CSC(N)=N[C@@]2(c2ccc(F)cc2F)C3)cn1 [Compound 106]
		7.77	7.3		COc1ncc(-c2ccccc2C)c2c1C[C@]1(c3ccc(F)cc3F)N=C(N)SC[C@@H]1C2 [Compound 55]
		8.6	9.02	CELLULAR αLISA ASSAY IN SKNBE2 CELLS ABETA TOTAL pIC50 [1]: 8.75	COc1ncc(-c2ccccc2)c2c1C[C@]1(c3ccc(F)cc3F)N=C(N)SC[C@@H]1C2 [Compound 49]
9.77	5.89				COC/C=C/c1cnc(OC)c2c1C[C@H]1CSC(N)=N[C@@]1(c1ccc(F)cc1F)C2 [Compound 47]
		7.65	6.73		COc1ncc(-c2cc(Cl)ccc2C)c2c1C[C@]1(c3ccc(F)cc3F)N=C(N)SC[C@@H]1C2 [Compound 60]
